Data taken from publication PMC6286390, “Discovering de novo peptide substrates for enzymes using machine learning” (Nature Communications, 2018).
“Also recorded” adds a separate entry of the source.

How the values were obtained:
B. subtilis Sfp = test: SPOT cellulose membrane peptide labeling with TAMRA-CoA by Sfp; type: biochemical, Bacillus subtilis; details: 10 µM PPTase, 40 µM TAMRA-CoA, 0.01% Triton X, 15 µM BSA, 50 mM Tris-HCl pH 8.0, 10 mM MgCl2, 16 h, 37 °C, fluorescence ex 532 nm/em 580 nm
Procedure: (§1) The peptides were synthesized on an amino-PEG-cellulose 10×15 cm^2 membrane and synthesized automatically by MultiPep RSi (INTAVIS Bioanalytical Instruments AG). After Fmoc cleavage with 20% 4-methyl piperidine (Sigma) in dimethylformamide (DMF), activated with 1 equiv. hydroxybenzotriazole and 2 equiv. N-methylpyrrolidone (NMP), and directly spotted on the membrane; after 15 min this step was repeated. The membrane was washed with DMF (3 × 3 min). Solutions of the Fmoc amino acids in NMP were spotted on the membrane (0.6 M solutions; 0.8 M solutions for C, H, N, Q, and R; triple coupling, 15 min each). The Fmoc group was removed from the spots, and the sequences of the peptides were completed using the standard SPOT synthesis protocol and followed by an N-terminal tag. […]
(§2) Synthesized membranes were deprotected with cleavage cocktail consisting of 94% trifluoroacetic acid (TFA), 2.5% water, 1% triisopropylsilane (Sigma), and 2.5% 1,2-ethanedithiol (Sigma) shaking at 2 h at room temperature. […] The membranes were rinsed liberally with TBST buffer, 0.1% TFA, and distilled deionized water before imaging on a Typhoon TRIO Variable Mode Imager (GE Healthcare BioSciences) at 50-µm resolution with 532 nm green laser excitation and 580 nm emission filter and a photomultiplier tube setting of 350 V. The membrane images were analyzed by the ImageJ software[37],[38].

S. coelicolor AcpS = test: SPOT cellulose membrane peptide labeling with TAMRA-CoA by AcpS; type: biochemical, Streptomyces coelicolor; details: 10 µM PPTase, 40 µM TAMRA-CoA, 0.01% Triton X, 15 µM BSA, 50 mM Tris-HCl pH 8.0, 10 mM MgCl2, 16 h, 37 °C, fluorescence ex 532 nm/em 580 nm
Procedure: as §1, §2

Sequence | labeling of membrane-bound peptide by Sfp (substrate / hit) (B. subtilis Sfp) | labeling of membrane-bound peptide by AcpS (substrate / hit) (S. coelicolor AcpS)
AVKMESLEYLDTM [4F01, Sfp-type peptide hit identified by POOL, round 4] | Sfp-type peptide hits; also recorded: specific to Sfp | 
IHDGADSVVWLWSNC | neither a substrate for Sfp nor AcpS | neither a substrate for Sfp nor AcpS
WPEEGIESFMSVPPP [4T25, AcpS-type peptide hit identified by POOL, round 4] |  | AcpS-type peptide hits; also recorded: specific to AcpS
